# Where two headings read alike, the source gives them in different places.
# Assays:
# [1] = room temperature; cited from earlier work
# [2] = test system: humans with elevated blood levels of phenylalanine (>600 μmol/L); assay: Open label single ascending oral dose study of 6R-BH4, blood Phe before and 24 hours after each dose; assay type: in vivo
# Excerpt: (§1) Criteria for inclusion in the study included (1) baseline blood Phe levels of >600 μmol/L, (2) age of at least 8 years. Criteria for exclusion from the study included (1) pregnancy or breastfeeding, (2) concurrent diseases or conditions that require medication or treatment, (3) concurrent treatment with any drug known to inhibit folate synthesis, and (4) treatment with any investigational drug within 30 days. Each of the patients also was identified as having a mutation in the phenylalanine hydroxylase (PAH) gene. Study subjects underwent baseline assessments, including medical history with assessment of phenylketonuria (PKU) or hyperphenylalaninemia (HPA) related signs and symptoms, physical examinations, vital signs, serum amino acid (i.e., phenylalanine, tyrosine, and tryptophan) blood levels, and routine laboratory tests (chemistry, hematology, and urinalysis) before inclusion in the study.
# Within a maximum of 4 weeks following the completion of baseline assessments, eligible subjects began the first stage of the study. Single ascending doses of 10 mg/kg, 20 mg/kg and 40 mg/kg of 6R-BH4 were administered orally, with a washout period of at least 7 days between each dose, and subjects were monitored 24 hours after each dose. Subjects underwent a safety assessment and blood amino acid (i.e, phenylalanine, tyrosine, and tryptophan) level measurements before and 24 hours after each 6R-BH4 dose. Blood pressure was measured 30 minutes and 1 hour after each dose. Safety assessments included physical examinations, vital signs, serial assessment of PKU or HPA related signs and symptoms, recording of adverse events, and monitoring of changes in laboratory parameters (chemistry, hematology, and urinalysis). Subjects were instructed to continue their usual diet without any modification, and to record daily intake of food and beverages throughout the study.
# [3] = test system: humans with elevated blood levels of phenylalanine (>600 μmol/L); assay: Multiple dose study (7-day loading test), 6R-BH4 daily for 7 days, blood Phe and tyrosine; assay type: in vivo
# Excerpt: as §1
# After the first stage of the study was completed, subjects entered the second stage of the study, during which they received 10 mg/kg of 6R-BH4 daily in an oral dosage form, for a total of 7 days. After a washout period of at least 7 days, each subject received 20 mg/kg of 6R-BH4 daily for a total of 7 days. During the second stage of the study, subjects were monitored before dosing, at 24 and 72 hours after first dose, and on the 7th day of dosing at each of the two dose levels. Monitoring included a safety assessment as described above, measurement of serum blood amino acid (i.e, phenylalanine, tyrosine, and tryptophan) levels and evaluation of phenylalanine and tyrosine oral intake. Subjects were instructed to continue their usual diet without any modification, and to record daily intake of food and beverages throughout the study.
# Of those 14 patients, 10 (71%) responded favorably to 10 mg/kg/day. […] The individual blood Phe responses to multiple doses of 10 mg/kg BH4 are shown in 11 adults (FIG. 17) and 9 children (FIG. 19). The individual blood Phe responses to multiple doses of 20 mg/kg BH4 are shown in 11 adults (FIG. 18) and in 9 children (FIG. 20).
# [4] = Schircks dihydrochloride salt, oral tablets; cited from earlier work
# [5] = Storage stability of the polymorph form of BH4×2HCl, quality checked by HPLC; assay type: physicochemical; conditions: minigrip bag, 40° C., 75% relative humidity
# Protocol: The polymorph forms of BH4 described in the Moser Applications are a very stable crystalline form of the drug. The polymorph form can be easily filtered off, dried and ground to particle sizes desired for pharmaceutical formulations. These outstanding properties renders this polymorph form especially feasible for pharmaceutical application. The stability of the polymorph form of BH4 was determined after the BH4×2HCl (the polymorph form) had been stored for 8 months in a minigrip bag at 40° C. and 75% relative humidity. Quality was checked in different intervals throughout the 8 month period by HPLC.
# [6] = for hygroscopicity / water adsorbed (content): dihydrochloride; for water adsorbed (content): released on heating at 10° C./minute
smiles,measurement,setting,value
"C[C@H](O)[C@H](O)[C@H]1CNc2nc(N)[nH]c(=O)c2N1 [6R-BH4, (6R)-5,6,7,8-tetrahydrobiopterin]",shelf-life,[1],< 8 h
same,blood Phe decline from baseline,[2]; single oral dose 10 mg/kg,10%±0.26%
same,blood Phe mean decline from baseline,[2]; single oral dose 20 mg/kg,17%±0.28%
same,blood Phe mean decline from baseline,[2]; single oral dose 40 mg/kg,27%±0.25%
same,responders to 20 mg/kg who also responded to the lower dose (30% or greater reduction in blood Phe),"[3]; 10 mg/kg/day, 10 of the 14 responders",71%
same,patients with sustained decrease in blood Phe concentration (responsive = decline of 30%),"[3]; 20 mg/kg daily, 14/20 patients",70 % of the patients
same,"increase in blood tyrosine from baseline, some patients","[3]; 10 and 20 mg/kg daily, some but not all patients",> 80%
same,half-life,[4],approximately 3.5 hours
"C[C@H](O)[C@H](O)[C@H]1CNc2nc(N)[nH]c(=O)c2N1.Cl.Cl [BH4×2HCl, (6R)-L-erythro-tetrahydrobiopterin dihydrochloride]",HPLC [% area],[5]; 0 months (at the beginning),98.4 % area
same,HPLC [% area],[5]; after 1 month,98.3 % area
same,HPLC [% area],[5]; after 1 week,99.4 % area
same,HPLC [% area],[5]; after 3 months,99.1 % area
same,HPLC [% area],[5]; after 8 months,98.1 % area
"C[C@H](O)[C@H](O)[C@H]1CNc2nc(N)[nH]c(=O)c2N1.Cl.Cl [Form E, (6R)-L-erythro-tetrahydrobiopterin dihydrochloride]",hygroscopicity,[6],non-hygroscopic
"C[C@H](O)[C@H](O)[C@H]1CNc2nc(N)[nH]c(=O)c2N1.Cl.Cl [Hydrate form C, (6R)-L-erythro-tetrahydrobiopterin dihydrochloride]",hygroscopicity,[6]; hydrate form C,slightly hygroscopic
"C[C@H](O)[C@H](O)[C@H]1CNc2nc(N)[nH]c(=O)c2N1.Cl.Cl [Polymorph A, (6R)-L-erythro-tetrahydrobiopterin dihydrochloride]",hygroscopicity,[6],slightly hygroscopic
same,water adsorbed (content),[6],about 3 percent by weight
same,phase equilibration test of suspensions: form after filtration and air drying,"[6]; tetrahydrofuran or tertiary-butyl methyl ether, five days and 18 hours respectively, under nitrogen, room temperature",unchanged polymorph form A
"C[C@H](O)[C@H](O)[C@H]1CNc2nc(N)[nH]c(=O)c2N1.Cl.Cl [Polymorph B, (6R)-L-erythro-tetrahydrobiopterin dihydrochloride]",hygroscopicity,[6],slightly hygroscopic
"C[C@H](O)[C@H](O)[C@H]1CNc2nc(N)[nH]c(=O)c2N1.Cl.Cl [Polymorph F, (6R)-L-erythro-tetrahydrobiopterin dihydrochloride]",hygroscopicity,[6],slightly hygroscopic
same,water adsorbed (content),[6],about 3 percent by weight
"C[C@H](O)[C@H](O)[C@H]1CNc2nc(N)[nH]c(=O)c2N1.Cl.Cl [Polymorph K, (6R)-L-erythro-tetrahydrobiopterin dihydrochloride]",hygroscopicity,[6],slightly hygroscopic
same,water adsorbed (content),[6],about 2.0 percent by weight
"C[C@H](O)[C@H](O)[C@H]1CNc2nc(N)[nH]c(=O)c2N1.Cl.Cl [hydrate D, (6R)-L-erythro-tetrahydrobiopterin dihydrochloride]",hygroscopicity,[6]; hydrate form D,slightly hygroscopic
"C[C@H](O)[C@H](O)[C@H]1CNc2nc(N)[nH]c(=O)c2N1.Cl.Cl [polymorph J, (6R)-L-erythro-tetrahydrobiopterin dihydrochloride]",hygroscopicity,[6],slightly hygroscopic
